A word on the Km: it is the concentration of substrate that gives half-maximal velocity.

The text below walks through data of ChEMBL document CHEMBL2073962, “Wild-type breast cancer resistance protein (BCRP/ABCG2) is a methotrexate polyglutamate transporter” (Cancer Res, 2003).

Data set [1] concerns the target T1, Broad substrate specificity ATP-binding cassette transporter ABCG2 (Homo sapiens, UniProt Q9UNQ0).
T1 sequence (Q9UNQ0 whole entry): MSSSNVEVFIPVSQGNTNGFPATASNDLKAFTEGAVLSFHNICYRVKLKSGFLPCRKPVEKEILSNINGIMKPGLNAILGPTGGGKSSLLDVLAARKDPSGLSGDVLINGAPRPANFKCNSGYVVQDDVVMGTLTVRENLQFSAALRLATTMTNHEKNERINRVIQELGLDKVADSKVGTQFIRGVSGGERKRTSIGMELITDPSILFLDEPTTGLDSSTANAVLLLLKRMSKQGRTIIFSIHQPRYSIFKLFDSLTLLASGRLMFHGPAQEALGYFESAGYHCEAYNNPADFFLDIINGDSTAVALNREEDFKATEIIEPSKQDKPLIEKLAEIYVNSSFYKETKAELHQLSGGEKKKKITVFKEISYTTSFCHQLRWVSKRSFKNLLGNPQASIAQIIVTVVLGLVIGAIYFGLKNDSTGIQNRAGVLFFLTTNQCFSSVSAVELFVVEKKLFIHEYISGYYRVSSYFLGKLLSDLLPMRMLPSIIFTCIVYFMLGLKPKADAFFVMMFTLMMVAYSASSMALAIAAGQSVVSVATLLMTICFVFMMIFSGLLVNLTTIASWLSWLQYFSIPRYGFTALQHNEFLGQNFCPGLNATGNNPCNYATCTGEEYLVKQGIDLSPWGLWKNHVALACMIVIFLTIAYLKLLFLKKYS
The data set can be described thus: (§1) TP_TRANSPORTER: uptake (vesicle) in membrane vesicles from BCRP-expressing MCF7 cells. The class given is functional, cell membranes.

The target of data set [2] is T1, Broad substrate specificity ATP-binding cassette transporter ABCG2. The data set can be described thus: TP_TRANSPORTER: inhibition of MTX in membrane vesicles from BCRP-expressing MCF7 cells. The class given is functional, cell membranes, Membrane vesicle.
The target is the same in data set [3]. The data set can be described thus: TP_TRANSPORTER: inhibition of MTX update by Mitoxantrone at a concentration of 50uM in membrane vesicles from BCRP-expressing MCF7 cells. It counts as functional, cell membranes, Membrane vesicle. Further details: scale not given: the % may be the effect or the level left. The following applies: mcf7, 50 µM.
Substrate in data set [4]: CN(Cc1cnc2nc(N)nc(N)c2n1)c1ccc(C(=O)N[C@@H](CCC(=O)O)C(=O)O)cc1
The description is as §1. It counts as functional, cell membranes.

Turning to `CN(Cc1cnc2nc(N)nc(N)c2n1)c1ccc(C(=O)N[C@@H](CCC(=O)N[C@@H](CCC(=O)N[C@@H](CCC(=O)O)C(=O)O)C(=O)O)C(=O)O)cc1`, the Activity entry in data set [1] was “substrate []”. On to `COc1ccc2c3c([nH]c2c1)[C@H](C=C(C)C)N1C(=O)[C@@H]2CCCN2C(=O)[C@@H]1C3` [FUMITREMORGIN], for which the Activity result in data set [2] was “inhibitor []”.

`O=C1c2c(O)ccc(O)c2C(=O)c2c(NCCNCCO)ccc(NCCNCCO)c21` [MITOXANTRONE]: the Activity in data set [3] was 50%. As for `CN(Cc1cnc2nc(N)nc(N)c2n1)c1ccc(C(=O)N[C@@H](CCC(=O)N[C@@H](CCC(=O)N[C@@H](CCC(=O)N[C@@H](CCC(=O)O)C(=O)O)C(=O)O)C(=O)O)C(=O)O)cc1`, the Activity entry in data set [1] is “substrate []”.

B1: Broad substrate specificity ATP-binding cassette transporter ABCG2 (Homo sapiens) (protein)
chain: MSSSNVEVFIPVSQGNTNGFPATASNDLKAFTEGAVLSFHNICYRVKLKSGFLPCRKPVEKEILSNINGIMKPGLNAILGPTGGGKSSLLDVLAARKDPSGLSGDVLINGAPRPANFKCNSGYVVQDDVVMGTLTVRENLQFSAALRLATTMTNHEKNERINRVIQELGLDKVADSKVGTQFIRGVSGGERKRTSIGMELITDPSILFLDEPTTGLDSSTANAVLLLLKRMSKQGRTIIFSIHQPRYSIFKLFDSLTLLASGRLMFHGPAQEALGYFESAGYHCEAYNNPADFFLDIINGDSTAVALNREEDFKATEIIEPSKQDKPLIEKLAEIYVNSSFYKETKAELHQLSGGEKKKKITVFKEISYTTSFCHQLRWVSKRSFKNLLGNPQASIAQIIVTVVLGLVIGAIYFGLKNDSTGIQNRAGVLFFLTTNQCFSSVSAVELFVVEKKLFIHEYISGYYRVSSYFLGKLLSDLLPMRMLPSIIFTCIVYFMLGLKPKADAFFVMMFTLMMVAYSASSMALAIAAGQSVVSVATLLMTICFVFMMIFSGLLVNLTTIASWLSWLQYFSIPRYGFTALQHNEFLGQNFCPGLNATGNNPCNYATCTGEEYLVKQGIDLSPWGLWKNHVALACMIVIFLTIAYLKLLFLKKYS
For the molecule B1, the Km in data set [4] was 680 µM.
